Source: publication PMC7217877, “N-AS-triggered SPMs are direct regulators of microglia in a model of Alzheimer’s disease” (Nature Communications, 2020)
Values joined by “and” are separate entries in the source; they are usually repeats but may differ in a detail not shown here. Identical values can stand only once.

Biological target: T1, COX2 S565A (Homo sapiens, UniProt P35354, S565A)
T1 construct: His (N); made in house
T1 sequence (P35354 18-604 S565A): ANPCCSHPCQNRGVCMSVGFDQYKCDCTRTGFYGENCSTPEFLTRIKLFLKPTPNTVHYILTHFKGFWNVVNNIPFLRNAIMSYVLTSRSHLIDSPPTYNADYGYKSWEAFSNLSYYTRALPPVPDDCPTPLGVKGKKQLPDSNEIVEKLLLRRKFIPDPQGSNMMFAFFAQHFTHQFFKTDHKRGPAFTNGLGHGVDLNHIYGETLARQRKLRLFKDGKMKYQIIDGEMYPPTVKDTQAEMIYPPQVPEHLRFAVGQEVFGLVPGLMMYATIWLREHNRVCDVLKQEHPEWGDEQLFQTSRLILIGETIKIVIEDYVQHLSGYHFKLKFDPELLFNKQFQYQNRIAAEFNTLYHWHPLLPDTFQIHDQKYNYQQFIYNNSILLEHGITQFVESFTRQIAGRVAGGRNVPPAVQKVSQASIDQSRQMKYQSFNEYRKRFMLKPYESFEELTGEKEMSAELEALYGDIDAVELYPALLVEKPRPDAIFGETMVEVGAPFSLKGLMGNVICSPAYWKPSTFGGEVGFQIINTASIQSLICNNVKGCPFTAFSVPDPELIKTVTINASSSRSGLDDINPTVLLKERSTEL
Experiment: lipid mediator and SPM biosynthesis by recombinant COX2 with 5-LOX (LC-MS/MS)
Format: biochemical
Settings: COX2 S565A + 5-LOX; replicates
Source text: Single point mutations in SphK1 (R56A, R57A, R24A, R185A, D178A, and F192A) and COX2 (S565A, N181A, T564A, and S567A) were generated using the In-Fusion Cloning Kits (Clontech) and ORF cDNA expression plasmids of human SphK1 and COX2 gene (Sino Biological Inc, HG15679-NH and HG12036-NH), according to the manufacturer’s instructions. The forward and reverse primers described in Supplementary Table 4. The SphK1 WT, SphK1 mutants, COX2 WT, and COX2 mutant plasmids were transformed in the One shot TOP 10 competent cell (Invitrogen). The bacteria were grown in Luria-Bertani (LB, Invitrogen) plates supplemented with 50 μg ml^−1 kanamycin (Sigma-Aldrich) at 37 °C. The bacterial cell pellets were resuspended in lysis buffer containing 20 mM sodium phosphate (GE Healthcare), 500 mM NaCl (GE Healthcare), 20 mM imidazole (pH 7.4) (GE Healthcare), 0.2 mg ml^−1 lysozyme (Sigma-Aldrich), 20 μg ml^−1 DNase I (Roche), 1 mM MgCl2 (Sigma-Aldrich), and 1 mM PMSF (Sigma-Aldrich) before being lysed by sonication and clarified by centrifugation at 15,493×g for 10 min. Proteins were purified from the soluble fraction using His-Spin Trap columns (GE Healthcare) and the binding and acetylation assays were performed.
Lipid mediators metabololipidomics were performed according to previously described procedures with minor modifications[4],[30]. To confirm the biosynthesis of lipid mediators by recombinant COX2 treated with N-AS or aspirin, 10 U of human recombinant COX2 (Cayman, 60122) was incubated in the presence of 500 μM aspirin (Sigma-Aldrich, A5376) or N-AS (Sigma-Aldrich, 01912) at 37 °C for 30 min. The enzyme was filtered with a Microcon column (Millipore) to remove unreacted aspirin or N-AS and was then resuspended in 0.1 M Tris-HCl (pH 8.0). Next, 500 μM phenol (Sigma-Aldrich) and 1 μM hematin-porcine (Sigma-Aldrich) were added immediately before incubation with 100 μM AA, EPA or DHA (Cayman) at 37 °C for 2 h, respectively. The mixtures were incubated with 30 U of human 5-LOX (Cayman, 60402) containing 2 mM CaCl2 (Sigma-Aldrich), 1 mM ATP (Amresco) and 5 μM 13-HpODE (Cayman) as activators. Also, to validate the importance of residue S565 for N-AS-acetylation of COX2 and production of SPMs, 10 U of the COX2 S565A mutant was used in the above-described method. In addition, to confirm SPM generation in neurons and microglia, these cells were treated with Aβ and sonicated in neuronal and glial culture medium. […] To evaluate the relationship of N-AS and SPM production in microglia, microglia were isolated from WT, APP/PS1, and APP/PS1 treated with N-AS mice at 9 months of age. The microglia were sonicated and resuspended in microglial culture medium. The supernatants were incubated with 100 μM AA, EPA, and DHA (Cayman) at 37 °C for 2 h. A 50 μl aliquot of the mixture from each cell lysate was added to a 250 μl aliquot of 1 ng ml^−1 of 15S-LXA4-d5 (internal standard, Cayman) methanol solution. After vortexing for 10 min and centrifuging at 15,974×g for 5 min, the supernatant was subjected to the analysis of the lipid mediators using an Agilent 6470 Triple Quad LC-MS/MS system (Agilent) coupled to an Agilent 1290 HPLC system. Chromatographic separation was achieved using a Synergi Polar RP (4 μm, 2.0 mm i.d. × 150 mm, Phenomenex). Analytes were eluted with a mobile phase consisting of water: formic acid (100:0.1 v/v) (phase A) and methanol: formic acid (100:0.1 v/v) (phase B) in gradient elution mode for 23 min a flow rate of 0.2 ml min^−1. The elution gradient was as follows: from 0 to 0.1 min the content of phase A was 37% and the content of phase A was decreased to 10% and maintained for 5.5 min. The content of phase A was increased back to 37% at 6.0 min and maintained for 23 min. Quantification was carried out using MRM in negative ionization mode and collision energy of 10–15 eV. The mass transition from Q1 to Q3 is shown in Supplementary Table 2. In this study, the peak areas for all components were automatically integrated using MassHunter B 06.00. […]

| Structure (SMILES) | 15R-LxA4 quantification (Fig 2c) | RvD1 quantification (Fig 2c) | RvE1 quantification (Fig 2c) |
| --- | --- | --- | --- |
| CC(=O)Oc1ccccc1C(=O)O [Aspirin, acetylsalicylic acid, reference compound] | 9150.99 and 8986.22 and 7776.32 and 8811.42 and 9216.35 and 9050.41 | 427.4 and 465.61 and 668.98 and 626.93 and 591.63 and 656.31 and 339.99 | 3219.24 and 3312.36 and 4211.76 and 3281.98 and 3114.22 and 3326.6 |
| CCCCCCCCCCCCC/C=C/[C@@H](O)[C@H](CO)NC(C)=O [N-AS, N-((2S,3R,E)-1,3-Dihydroxyoctadec-4-en-2-yl)acetamide] | 4593.92 and 7037.27 and 8226.06 and 8467.27 and 8518.27 | 267.45 and 147.28 and 357.09 and 383.18 and 373.27 and 420.17 and 225.36 | 2644.24 and 1751.77 and 1695.83 and 1984.56 and 2632.92 and 1703.12 and 1993.09 |
